Tested on: not given
Experiment: not given
Details: not given

| melting point | Compound |
| --- | --- |
| 110 to 112 °C | C=CC(=O)Nc1cc2c(Nc3ccc(F)c(Cl)c3)ncnc2cc1OCCCCN1CC(=O)OC(C)(C)C1 [C, 4-[(3-chloro-4-fluoro-phenyl)amino]-7-[4-(2,2-dimethyl-6-oxo-morpholin-4-yl)-butyloxy]-6-[(vinylcarbonyl)amino]-quinazoline] |
| 137 °C | CN(C)CC=CC(=O)Nc1cc2c(Nc3ccc(F)c(Cl)c3)ncnc2cc1OCC1CC1 [Example 3(2), 4-[(3-chloro-4-fluorophenyl)amino]-6-{[4-(N,N-dimethylamino)-1-oxo-2-buten-1-yl]-amino}-7-cyclopropylmethoxy-quinazoline] |
| 114 °C | CCN(CC)CC=CC(=O)Nc1cc2c(Nc3ccc(F)c(Cl)c3)ncnc2cc1OCC1CC1 [Example 3, 4-[(3-chloro-4-fluorophenyl)amino]-6-{[4-(N,N-diethylamino)-1-oxo-2-buten-1-yl]amino}-7-cyclopropylmethoxy-quinazoline] |
| 122 to 124 °C | CCOC(=O)CN(C)CC=CC(=O)Nc1cc2c(Nc3cccc(C)c3)ncnc2cc1OC [Example 4, 4-[(3-methylphenyl)amino]-6-[(4-{N-[(ethoxycarbonyl)methyl]-N-methylamino}-1-oxo-2-buten-1-yl)amino]-7-methoxy-quinazoline] |
| 173 to 175 °C | C[C@H]1CN(CC=CC(=O)Nc2cc3c(Nc4ccc(F)c(Cl)c4)ncnc3cc2OCC2CC2)CC(=O)O1 [Example 6, 4-[(3-chloro-4-fluoro-phenyl)amino]-6-{[4-((S)-6-methyl-2-oxo-morpholin-4-yl)-1-oxo-2-buten-1-yl]amino}-7-cyclopropylmethoxy-quinazoline] |
| 190 °C | COc1cc2ncnc(Nc3cccc(Br)c3)c2cc1OCCN1CC(=O)O[C@@H](C)C1 [Example 7, 4-[(3-bromo-phenyl)amino]-6-[2-((S)-6-methyl-2-oxo-morpholin-4-yl)-ethoxy]-7-methoxy-quinazoline] |
| 140 °C | CN(CC=CC(=O)Nc1cc2c(Nc3ccc(F)c(Cl)c3)ncnc2cc1OC1CCCC1)C1CC1 [Example 8(9), 4-[(3-chloro-4-fluorophenyl)amino]-6-{[4-(N-cyclopropyl-N-methyl-amino)-1-oxo-2-buten-1-yl]amino}-7-cyclopentyloxy-quinazoline] |
| 110 to 112 °C | CN(C)CC=CC(=O)Nc1cc2c(Nc3ccc(F)c(Cl)c3)ncnc2cc1OC[C@H]1CCCO1 [Example 8(10), 4-[(3-chloro-4-fluorophenyl)amino]-6-{[4-(N,N-dimethylamino)-1-oxo-2-buten-1-yl]-amino}-7-[(R)-(tetrahydrofuran-2-yl)methoxy]-quinazoline] |

Tested on: zymosan-induced influx of neutrophilic granulocytes in the mouse ear
Experiment: Test 2: inhibition of the zymosan-induced influx of neutrophilic granulocytes in the mouse ear (MPO activity)
Format: in vivo
Details: female NMRI mice, ear biopsy 24 h after intradermal zymosan; p<0.005
Description: • Test 2: Detection of a general anti-inflammatory principle of activity by inhibition of the zymosan-induced influx of neutrophilic granulocytes in the mouse ear by the EGF-receptor kinase inhibitor 4-[(3-chloro-4-fluoro-phenyl)amino]-6-[(4-dimethylamino-cyclohexyl)amino]-pyrimido[5,4-d]pyrimidine (compound N).
Determining the influx of neutrophilic granulocytes by measuring the myeloperoxidase (MPO) activity in the tissue. MPO is specific for neutrophilic granulocytes.
Female mice (breed: NMRI) weighing 20-25 g were anaesthetised with pentobarbital 60 mg/kg i.p. […] of zymosan dissolved in physiological saline in a volume of […] were administered intradermally into the right ear. 24 h after the intradermal application of zymosan the animals were killed with an overdose of pentobarbital. An ear biopsy (0=8 mm) was taken from the left (untreated) and right (treated) ear and placed in a test tube prepared with 1 ml of 0.5% HTAB. The samples were homogenised for 15 sec with an Ultraturrax. The homogenised preparations were centrifuged for 5 min in an Eppendorf bench centrifuge at 15700 g at ambient temperature. […] After 10 minutes' incubation at ambient temperature the absorption was measured with a spectral photometer at a wavelength of 450 nm.

| Compound | inhibition of the zymosan-induced increase in the MPO activity in the tissue |
| --- | --- |
| CN(C)C1CCC(Nc2ncc3ncnc(Nc4ccc(F)c(Cl)c4)c3n2)CC1 (stereo not drawn) [compound N, 4-[(3-chloro-4-fluoro-phenyl)amino]-6-[(4-dimethylamino-cyclohexyl)amino]-pyrimido[5,4-d]pyrimidine] | 60% |

Tested on: cigarette smoke-induced influx of neutrophilic granulocytes into the lung tissue
Experiment: Test 1: inhibition of smoke-induced accumulation of granulocytes in the lung tissue (MPO activity)
Format: in vivo, rats (Sprague-Dawley)
Details: Rattus norvegicus; male rats, smoke from 8 cigarettes a day for 5 days; intratracheal dose each day 30 mins before smoke exposure; lung tissue MPO; linear regression; read-out: ID50 (dosage that produced a 50% inhibition of the MPO activity)
Protocol: Male rats (breed: Sprague-Dawley) weighing from 250-300 g were exposed to the smoke from 8 cigarettes a day for 5 days. […] On the last day of the experiment the animals were killed 4 hours after the final smoke exposure and the lung tissue was removed. From each lung a sample of 70-200 mg was taken and placed in a prepared test tube containing 1 ml of 0.5% hexadecyltrimethyl ammonium bromide. The samples were homogenised for 15 sec with an Ultraturrax. The homogenates were centrifuged off in an Eppendorf bench centrifuge at 15700 g for 5 min at ambient temperature. […] After 10 minutes' incubation at ambient temperature, the absorption was measured with a spectral photometer at a wavelength of 450 nm.

| Compound | ED50 |
| --- | --- |
| C=CC(=O)Nc1cc2c(Nc3ccc(F)c(Cl)c3)ncnc2cc1OCCCCN1CC(=O)O[C@H](C)C1 [B, 4-[(3-chloro-4-fluoro-phenyl)amino]-7-[4-((R)-6-methyl-2-oxo-morpholin-4-yl)-butyloxy]-6-[(vinylcarbonyl)amino]-quinazoline] | 0.03 mg/kg |
| C=CC(=O)Nc1cc2c(Nc3ccc(F)c(Cl)c3)ncnc2cc1OCCCCN1CC(=O)OC(C)(C)C1 [C, 4-[(3-chloro-4-fluoro-phenyl)amino]-7-[4-(2,2-dimethyl-6-oxo-morpholin-4-yl)-butyloxy]-6-[(vinylcarbonyl)amino]-quinazoline] | 0.03 mg/kg |
| C=CC(=O)Nc1cc2c(Nc3ccc(F)c(Cl)c3)ncnc2cc1OCCCCN1CC(=O)O[C@@H](C)C1 [D, 4-[(3-chloro-4-fluoro-phenyl)amino]-7-[4-((S)-6-methyl-2-oxo-morpholin-4-yl)-butyloxy]-6-[(vinylcarbonyl)amino]-quinazoline] | 0.3 mg/kg |
| COCCN(CC=CC(=O)Nc1cc2c(Nc3ccc(F)c(Cl)c3)ncnc2cc1OCC1CC1)CCOC [E, 4-[(3-chloro-4-fluoro-phenyl)amino]-6-({4-[bis-(2-methoxyethyl)-amino]-1-oxo-2-buten-1-yl}amino)-7-cyclopropylmethoxy-quinazoline] | 0.2 mg/kg |
| C[C@@H]1CN(CC=CC(=O)Nc2cc3c(Nc4ccc(F)c(Cl)c4)ncnc3cc2OCC2CC2)CC(=O)O1 [F, 4-[(3-chloro-4-fluoro-phenyl)amino]-6-{[4-((R)-6-methyl-2-oxo-morpholin-4-yl)-1-oxo-2-buten-1-yl]amino}-7-cyclopropylmethoxy-quinazoline] | 0.3 mg/kg |
| COC[C@@H]1CN(CC=CC(=O)Nc2cc3c(Nc4ccc(F)c(Cl)c4)ncnc3cc2OCC2CC2)CC(=O)O1 [H, 4-[(3-chloro-4-fluoro-phenyl)amino]-6-{[4-((S)-2-methoxymethyl-6-oxo-morpholin-4-yl)-1-oxo-2-buten-1-yl]amino}-7-cyclopropylmethoxy-quinazoline] | 0.3 mg/kg |
| CCN(CC=CC(=O)Nc1cc2c(N[C@H](C)c3ccccc3)ncnc2cc1OCC1CC1)CCOC [I, 4-[(R)-(1-phenyl-ethyl)amino]-6-({4-[N-(2-methoxy-ethyl)-N-ethyl-amino]-1-oxo-2-buten-1-yl}amino)-7-cyclopropylmethoxy-quinazoline] | 0.2 mg/kg |
| COCCN(CC=CC(=O)Nc1cc2c(N[C@H](C)c3ccccc3)ncnc2cc1OCC1CC1)CCOC [K, 4-[(R)-(1-phenyl-ethyl)amino]-6-{[4-(N,N-bis-(2-methoxy-ethyl)-amino)-1-oxo-2-buten-1-yl]amino}-7-cyclopropylmethoxy-quinazoline] | 0.3 mg/kg |
| C[C@@H](Nc1ncnc2cc(OCC3CC3)c(NC(=O)C=CCN(C)C3CCOCC3)cc12)c1ccccc1 [L, 4-[(R)-(1-phenyl-ethyl)amino]-6-({4-[N-(tetrahydropyran-4-yl)-N-methyl-amino]-1-oxo-2-buten-1-yl}amino)-7-cyclopropylmethoxy-quinazoline] | 0.1 mg/kg |
| COc1cc2ncnc(Nc3ccc(F)c(Cl)c3)c2cc1OCCN1CC(=O)O[C@@H](C)C1 [compound A, 4-[(3-chloro-4-fluoro-phenyl)amino]-6-[2-((S)-6-methyl-2-oxo-morpholin-4-yl)-ethoxy]-7-methoxy-quinazoline] | 0.1 mg/kg |

Same assay, conditions: male rats, smoke from 8 cigarettes a day for 5 days; intratracheal dose each day 30 mins before smoke exposure; lung tissue MPO; linear regression

| Compound | ID50 (dosage that produced a 50% inhibition of the MPO activity) |
| --- | --- |
| 4-[(3-chloro-4-fluoro-phenyl)amino]-6-[2-((S)-6-methyl-2-oxo-morpholin-4-yl)-ethoxy]-7-methoxy-quinazoline [G] | <0.03 mg/kg |

Same assay, conditions: rats, intratracheal 0.03 or 0.1 mg/kg daily, lung tissue myeloperoxidase

| Compound | inhibition of the smoke-induced accumulation of granulocytes |
| --- | --- |
| COc1cc2ncnc(Nc3ccc(F)c(Cl)c3)c2cc1OCCN1CC(=O)O[C@@H](C)C1 [compound A, 4-[(3-chloro-4-fluoro-phenyl)amino]-6-[2-((S)-6-methyl-2-oxo-morpholin-4-yl)-ethoxy]-7-methoxy-quinazoline] | significant (p<0.005) inhibition |
